Measured values reported in patent US12630600B2 (MEDIMMUNE LIMITED, priority 2022, dated 2026).
Like-named read-outs stand apart in the source and are kept apart here. Starred links: 1 amine or outer side, 2 acyl side, 3 side chain; linkers in the order of their positions; H or OH if unused. Non-standard residues stand in square brackets, D forms with d. Residues, ends and D or L forms follow the SMILES beside them. Groups on a side chain read outwards from the residue. *: point of attachment. C20 diacid = O=C(O)CCCCCCCCCCCCCCCCCCC(=O)*; C18 diacid = O=C(O)CCCCCCCCCCCCCCCCC(=O)*; γGlu = O=C(O)[C@H](CCC(=O)[*:2])N[*:1]; Stearoyl = CCCCCCCCCCCCCCCCCC(=O)*; αMeF = C[C@](N)(Cc1ccccc1)C(=O)O; PEG2 = NCCOCCOCCC(=O)O; AEEA = NCCOCCOCC(=O)O; Aib = CC(C)(N)C(=O)O

What was measured:
[1] = target: T1, human GLP-1 receptor (hGLP-1R) (Homo sapiens, UniProt P43220); experiment: cAMP production (HTRF) in CHO cells expressing human GLP-1 receptor; assay type: cell-based; settings: for % Relative Potency Ratio: % GLP-1R activity relative to GLP-1 / % GlucR activity relative to glucagon
T1 construct: expressed in transfected cells; host or cells: CHO
T1 sequence (P43220 24-463): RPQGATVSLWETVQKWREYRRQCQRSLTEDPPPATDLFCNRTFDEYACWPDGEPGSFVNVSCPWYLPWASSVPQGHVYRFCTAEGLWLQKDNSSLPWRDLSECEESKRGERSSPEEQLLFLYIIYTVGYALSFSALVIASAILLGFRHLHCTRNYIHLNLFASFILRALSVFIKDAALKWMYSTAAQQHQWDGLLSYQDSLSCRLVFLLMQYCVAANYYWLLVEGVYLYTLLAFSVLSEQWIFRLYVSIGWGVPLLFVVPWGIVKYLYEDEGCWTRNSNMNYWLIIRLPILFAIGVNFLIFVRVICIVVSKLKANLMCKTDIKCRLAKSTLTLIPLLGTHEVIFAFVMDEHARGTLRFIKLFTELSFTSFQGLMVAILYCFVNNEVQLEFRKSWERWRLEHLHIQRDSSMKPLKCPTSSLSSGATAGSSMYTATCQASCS

[2] = target: T2, human glucagon receptor (hGCGR) (Homo sapiens, UniProt P47871); experiment: cAMP production (HTRF) in CHO cells expressing human glucagon receptor; assay type: cell-based; settings: read-out: hGluc-R EC50
T2 construct: expressed in transfected cells; host or cells: CHO
T2 sequence (P47871 26-477): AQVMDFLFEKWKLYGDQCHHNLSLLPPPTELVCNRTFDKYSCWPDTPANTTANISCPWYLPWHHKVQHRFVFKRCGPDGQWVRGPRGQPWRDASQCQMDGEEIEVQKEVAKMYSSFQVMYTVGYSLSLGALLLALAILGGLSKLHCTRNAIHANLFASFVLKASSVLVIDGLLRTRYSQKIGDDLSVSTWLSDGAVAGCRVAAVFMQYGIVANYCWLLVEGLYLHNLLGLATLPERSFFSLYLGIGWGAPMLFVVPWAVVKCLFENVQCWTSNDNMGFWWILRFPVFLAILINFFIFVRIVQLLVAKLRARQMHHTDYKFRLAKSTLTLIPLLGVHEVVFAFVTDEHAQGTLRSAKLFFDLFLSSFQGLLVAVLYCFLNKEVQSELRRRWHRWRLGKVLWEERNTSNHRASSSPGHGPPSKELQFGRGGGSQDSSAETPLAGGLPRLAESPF
Description: Cells were re-suspended in assay buffer at a batch-dependent optimized concentration (typically hGLP-1R cells at 1×10^5 cells/mL, hGCGR cells at 2×10^5 cells/mL).
Cells were added to the assay plate using a multidrop dispenser and incubated at room temperature for 30 minutes before measuring the cAMP level using a cAMP dynamic 2 homogeneous time resolved Fluorescence (HTRF) kit (Cisbio Bioassays #62AM4PEJ) following the two-step protocol as per manufacturer's recommendations. In brief, anti-cAMP cryptate (donor fluorophore) and cAMP-d2 (acceptor fluorophore) were made up separately by diluting each 1 in 20 in conjugate and lysis buffer provided in the kit. Anti-cAMP cryptate was added to all wells of the assay plate, followed by cAMP-d2 added to all wells except non-specific binding (NSB) wells (to which conjugate and lysis buffer was added).
Data was transformed to % Delta F as described in the manufacturer's guidelines and analyzed by 4-parameter logistic fit to determine EC50 values.

[3] = Table 6, modification at position 17, CHO cells expressing hGCGR, geometric mean

In the case of `CC[C@H](C)[C@H](NC(=O)[C@H](Cc1c[nH]c2ccccc12)NC(=O)[C@H](CCC(N)=O)NC(=O)[C@@H](NC(=O)[C@H](Cc1ccccc1)NC(=O)[C@H](CC(=O)O)NC(=O)[C@H](CCCCNC(=O)COCCOCCNC(=O)COCCOCCNC(=O)CC[C@H](NC(=O)CCCCCCCCCCCCCCCCC(=O)O)C(=O)O)NC(=O)[C@H](C)NC(=O)[C@H](C)NC(=O)[C@H](CCCNC(=N)N)NC(=O)[C@H](CO)NC(=O)[C@H](CC(=O)O)NC(=O)[C@H](CC(C)C)NC(=O)[C@](C)(Cc1ccccc1)NC(=O)[C@H](CCCCN)NC(=O)[C@H](CO)NC(=O)[C@@H](NC(=O)[C@H](CC(=O)O)NC(=O)[C@H](CO)NC(=O)[C@@H](NC(=O)[C@](C)(Cc1ccccc1)NC(=O)[C@@H](NC(=O)CNC(=O)[C@H](CCC(N)=O)NC(=O)C(C)(C)NC(=O)[C@@H](N)Cc1c[nH]cn1)[C@@H](C)O)[C@@H](C)O)C(C)C)C(C)C)C(=O)N[C@@H](C)C(=O)N[C@@H](CC(N)=O)C(=O)N[C@H](C(N)=O)[C@@H](C)O` [Peptide 204] (H-H[Aib]QGT[αMeF]TSDVSK[αMeF]LDSRAAK([AEEA-AEEA-γGlu-C18 diacid])DFVQWIANT-NH2; N-terminus assumed), the EC50 ([1]; Table 7, modification at position 20, CHO cells expressing hGLP-1R, cAMP, geometric mean, read-out: hGLP-1R EC50) is reported as 0.0433 nM, the “% Relative Potency Ratio” value ([1]; Table 7) is reported as 27.2 and the EC50 ([2]; Table 7, modification at position 20, CHO cells expressing hGCGR, geometric mean) is reported as 0.595 nM.

`CCCCCCCCCCCCCCCCCC(=O)N[C@@H](CCC(=O)N[C@@H](CCC(=O)NCCOCCOCCC(=O)NCCOCCOCCC(=O)NCCCC[C@H](NC(=O)[C@H](CO)NC(=O)[C@H](CC(=O)O)NC(=O)[C@H](CC(C)C)NC(=O)[C@](C)(Cc1ccccc1)NC(=O)[C@H](CCCCN)NC(=O)[C@H](CO)NC(=O)[C@@H](NC(=O)[C@H](CC(=O)O)NC(=O)[C@H](CO)NC(=O)[C@@H](NC(=O)[C@](C)(Cc1ccccc1)NC(=O)[C@H](CO)NC(=O)CNC(=O)[C@H](CCC(N)=O)NC(=O)[C@H](CO)NC(=O)[C@@H](N)Cc1c[nH]cn1)[C@@H](C)O)C(C)C)C(=O)N[C@@H](C)C(=O)N[C@@H](C)C(=O)N[C@@H](CCC(N)=O)C(=O)N[C@@H](CC(=O)O)C(=O)N[C@@](C)(Cc1ccccc1)C(=O)N[C@H](C(=O)N[C@@H](CCC(N)=O)C(=O)NC(C)(C)C(=O)N[C@H](C(=O)N[C@@H](C)C(=O)N[C@@H](CC(N)=O)C(=O)N[C@H](C(N)=O)[C@@H](C)O)[C@@H](C)CC)C(C)C)C(=O)O)C(=O)O` [Peptide 82] (H-HSQGS[αMeF]TSDVSK[αMeF]LDSK([PEG2-PEG2-γGlu-γGlu-Stearoyl])AAQD[αMeF]VQ[Aib]IANT-NH2; N-terminus assumed) showed an EC50 [2, 3] of 0.00777 nM.

`CCCCCCCCCCCCCCCC(=O)N[C@@H](CCC(=O)NCCOCCOCCC(=O)NCCOCCOCCC(=O)NCCCC[C@H](NC(=O)[C@H](CC(=O)O)NC(=O)[C@H](CO)NC(=O)[C@@H](NC(=O)[C@H](Cc1ccccc1)NC(=O)[C@H](CO)NC(=O)CNC(=O)[C@H](CCC(N)=O)NC(=O)C(C)(C)NC(=O)[C@@H](N)Cc1c[nH]cn1)[C@@H](C)O)C(=O)N[C@@H](CO)C(=O)N[C@@H](CCCCN)C(=O)N[C@H](C(=O)N[C@@H](CC(C)C)C(=O)N[C@@H](CC(=O)O)C(=O)N[C@@H](CO)C(=O)N[C@@H](CCCNC(=N)N)C(=O)N[C@@H](C)C(=O)N[C@@H](C)C(=O)N[C@@H](CCC(N)=O)C(=O)N[C@@H](CC(=O)O)C(=O)N[C@@H](Cc1ccccc1)C(=O)N[C@H](C(=O)N[C@@H](CCC(=O)O)C(=O)N[C@@H](Cc1c[nH]c2ccccc12)C(=O)N[C@H](C(=O)N[C@@H](C)C(=O)N[C@@H](CC(N)=O)C(=O)N[C@H](C(N)=O)[C@@H](C)O)[C@@H](C)CC)C(C)C)[C@@H](C)CC)C(=O)O` [Peptide 395] gave an EC50 ([2]; Table 9, peptides modified at position 10, geometric mean, CHO cells) of 0.00955 nM.

Work on `CC(C)C[C@H](NC(=O)[C@H](Cc1c[nH]c2ccccc12)NC(=O)[C@H](CCCNC(=N)N)NC(=O)[C@@H](NC(=O)[C@H](Cc1ccccc1)NC(=O)[C@H](CC(=O)O)NC(=O)[C@H](CCCNC(=N)N)NC(=O)[C@H](C)NC(=O)[C@H](CCCNC(=N)N)NC(=O)[C@H](CCCCNC(=O)CC[C@H](NC(=O)CC[C@H](NC(=O)COCCOCCNC(=O)COCCOCCNC(=O)CC[C@H](NC(=O)CC[C@H](NC(=O)CCCCCCCCCCCCCCCCC(=O)O)C(=O)O)C(=O)O)C(=O)O)C(=O)O)NC(=O)[C@H](CO)NC(=O)[C@H](CC(=O)O)NC(=O)[C@H](CC(C)C)NC(=O)[C@](C)(Cc1ccccc1)NC(=O)[C@H](CCCCN)NC(=O)[C@H](CO)NC(=O)[C@@H](NC(=O)[C@H](CC(=O)O)NC(=O)[C@H](CO)NC(=O)[C@@H](NC(=O)[C@H](Cc1ccccc1)NC(=O)[C@@H](NC(=O)CNC(=O)[C@H](CCC(N)=O)NC(=O)C(C)(C)NC(=O)[C@@H](N)Cc1c[nH]cn1)[C@@H](C)O)[C@@H](C)O)C(C)C)C(C)C)C(=O)N[C@@H](CC(C)C)C(=O)N[C@@H](CCC(=O)O)C(=O)NC(C)(C)C(=O)NCC(=O)O` [Peptide 144] (H-H[Aib]QGTFTSDVSK[αMeF]LDSK([γGlu-γGlu-AEEA-AEEA-γGlu-γGlu-C18 diacid])RARDFVRWLLE[Aib]G-OH; N-terminus assumed) yielded an EC50 [2, 3] of 0.702 nM.

In the case of `CC[C@H](C)[C@H](NC(=O)C(C)(C)NC(=O)[C@H](CCCCNC(=O)COCCOCCNC(=O)COCCOCCNC(=O)CC[C@H](NC(=O)CCCCCCCCCCCCCCCCC(=O)O)C(=O)O)NC(=O)[C@@H](NC(=O)[C@H](Cc1ccccc1)NC(=O)[C@H](CC(=O)O)NC(=O)[C@H](CCC(N)=O)NC(=O)[C@H](C)NC(=O)[C@H](C)NC(=O)[C@H](CCCNC(=N)N)NC(=O)[C@H](CO)NC(=O)[C@H](CC(=O)O)NC(=O)[C@H](CC(C)C)NC(=O)[C@](C)(Cc1ccccc1)NC(=O)[C@H](CCCCN)NC(=O)[C@H](CO)NC(=O)[C@@H](NC(=O)[C@H](CC(=O)O)NC(=O)[C@H](CO)NC(=O)[C@@H](NC(=O)[C@](C)(Cc1ccccc1)NC(=O)[C@H](CO)NC(=O)CNC(=O)[C@H](Cc1c[nH]cn1)NC(=O)C(C)(C)NC(=O)[C@@H](N)Cc1c[nH]cn1)[C@@H](C)O)C(C)C)C(C)C)C(=O)N[C@@H](C)C(=O)N[C@@H](CC(N)=O)C(=O)N[C@H](C(N)=O)[C@@H](C)O` [Peptide 366] (H-H[Aib]HGS[αMeF]TSDVSK[αMeF]LDSRAAQDFVK([AEEA-AEEA-γGlu-C18 diacid])[Aib]IANT-NH2; N-terminus assumed), the “% Relative Potency Ratio” value ([1]; Table 8) is reported as 1.7.

Work on `CC(C)C[C@H](NC(=O)[C@H](Cc1c[nH]c2ccccc12)NC(=O)[C@H](CCCNC(=N)N)NC(=O)[C@@H](NC(=O)[C@H](Cc1ccccc1)NC(=O)[C@H](CC(=O)O)NC(=O)[C@H](CCCNC(=N)N)NC(=O)[C@H](C)NC(=O)[C@H](CCCNC(=N)N)NC(=O)[C@H](CCCCNC(=O)CC[C@H](NC(=O)CC[C@H](NC(=O)COCCOCCNC(=O)COCCOCCNC(=O)CC[C@H](NC(=O)CC[C@H](NC(=O)CCCCCCCCCCCCCCCCC(=O)O)C(=O)O)C(=O)O)C(=O)O)C(=O)O)NC(=O)[C@H](CO)NC(=O)[C@H](CC(=O)O)NC(=O)[C@H](CC(C)C)NC(=O)[C@](C)(Cc1ccccc1)NC(=O)[C@H](CCCCN)NC(=O)[C@H](CO)NC(=O)[C@@H](NC(=O)[C@H](CC(=O)O)NC(=O)[C@H](CO)NC(=O)[C@@H](NC(=O)[C@H](Cc1ccccc1)NC(=O)[C@@H](NC(=O)CNC(=O)[C@H](CCC(N)=O)NC(=O)C(C)(C)NC(=O)[C@@H](N)Cc1c[nH]cn1)[C@@H](C)O)[C@@H](C)O)C(C)C)C(C)C)C(=O)N[C@@H](CC(C)C)C(=O)N[C@@H](CCC(=O)O)C(=O)NC(C)(C)C(=O)NCC(=O)O` [Peptide 136] (H-H[Aib]QGTFTSDVSK[αMeF]LDSK([γGlu-γGlu-AEEA-AEEA-γGlu-γGlu-C18 diacid])RARDFVRWLLE[Aib]G-OH; N-terminus assumed) yielded an EC50 [2, 3] of 0.509 nM.

In the case of `CC[C@H](C)[C@H](NC(=O)[C@H](Cc1c[nH]c2ccccc12)NC(=O)[C@H](CCCCNC(=O)COCCOCCNC(=O)COCCOCCNC(=O)CC[C@H](NC(=O)CC[C@H](NC(=O)CCCCCCCCCCCCCCCCCCC(=O)O)C(=O)O)C(=O)O)NC(=O)[C@@H](NC(=O)[C@H](Cc1ccccc1)NC(=O)[C@H](CC(=O)O)NC(=O)[C@H](CCC(N)=O)NC(=O)[C@H](C)NC(=O)[C@H](C)NC(=O)[C@H](CCCNC(=N)N)NC(=O)[C@H](CO)NC(=O)[C@H](CC(=O)O)NC(=O)[C@H](CC(C)C)NC(=O)[C@](C)(Cc1ccccc1)NC(=O)[C@H](CCCCN)NC(=O)[C@H](CO)NC(=O)[C@@H](NC(=O)[C@H](CC(=O)O)NC(=O)[C@H](CO)NC(=O)[C@@H](NC(=O)[C@](C)(Cc1ccccc1)NC(=O)[C@H](CO)NC(=O)CNC(=O)[C@H](Cc1c[nH]cn1)NC(=O)C(C)(C)NC(=O)[C@@H](N)Cc1c[nH]cn1)[C@@H](C)O)C(C)C)C(C)C)C(=O)N[C@@H](C)C(=O)N[C@@H](CC(N)=O)C(=O)N[C@H](C(N)=O)[C@@H](C)O` [Peptide 377] (H-H[Aib]HGS[αMeF]TSDVSK[αMeF]LDSRAAQDFVK([AEEA-AEEA-γGlu-γGlu-C20 diacid])WIANT-NH2), the “% Relative Potency Ratio” value ([1]; Table 8) is reported as 2.5.
